Measured values: ChEMBL document CHEMBL3425507, “Separation and peroxisome proliferator-activated receptor-γ agonist activity evaluation of synthetic racemic bavachinin enantiomers” (Bioorg Med Chem Lett, 2015)

Legend:
[1] = biological target: T1, Peroxisome proliferator-activated receptor gamma (Homo sapiens, UniProt P37231); experiment: Agonist activity at PPARgamma ligand binding domain (unknown origin) using fluormone Pan-PPAR green tracer by TR-FRET assay based competitive ligand binding method
T1 sequence (P37231 whole entry): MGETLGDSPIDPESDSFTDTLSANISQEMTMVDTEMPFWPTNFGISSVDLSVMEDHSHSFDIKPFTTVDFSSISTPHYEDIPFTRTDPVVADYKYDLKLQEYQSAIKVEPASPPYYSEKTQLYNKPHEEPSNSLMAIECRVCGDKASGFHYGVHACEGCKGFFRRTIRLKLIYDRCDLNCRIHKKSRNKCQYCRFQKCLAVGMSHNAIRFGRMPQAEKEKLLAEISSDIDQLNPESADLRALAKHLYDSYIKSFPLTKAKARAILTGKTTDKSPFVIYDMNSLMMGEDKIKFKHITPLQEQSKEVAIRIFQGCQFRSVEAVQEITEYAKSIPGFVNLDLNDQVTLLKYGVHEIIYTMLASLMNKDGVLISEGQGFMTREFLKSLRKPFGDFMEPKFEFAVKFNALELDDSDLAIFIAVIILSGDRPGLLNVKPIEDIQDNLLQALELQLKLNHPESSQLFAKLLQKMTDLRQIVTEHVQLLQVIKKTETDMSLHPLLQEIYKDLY

[2] = Retention time of the compound by supercritical fluid chromatography; assay type: ADME

IC50 [1] [nM] | Ki [1] [nM] | Retention_time [2] [min] | SMILES
617 | 221 | 4.4 | COc1cc2c(cc1CC=C(C)C)C(=O)C[C@@H](c1ccc(O)cc1)O2 [BAVACHININ A]
489 | 176 | – | COc1cc2oc(-c3ccc(O)cc3)cc(=O)c2cc1CC=C(C)C [BAVACHININ]
471 | 169 | 4.99 | COc1cc2c(cc1CC=C(C)C)C(=O)C[C@H](c1ccc(O)cc1)O2
